Data from patent US6313164A, “Dithiolin derivatives, their preparation and their therapeutic effect” (Sankyo Company, Limited, priority 1997, dated 2001).

Experiments:
glutathione reductase = assay: Measurement of glutathione reductase activity in cultured rat lens; format: cell-based, SD rats; conditions: 72 hours, 37° C.
Experimental: The test animals were 6 to 8 week old male SD rats (supplier: Nippon SLC). The animals were sacrificed by suffocation by inhalation of carbon dioxide. Both eyeballs of each test animal were then excised. An incision was made in the sclera on the back of the eyeballs, and then the vitreous body and iris-ciliary body were removed, followed by removal of the lens.
Each lens obtained in this manner was cultured by immersing it in 3 ml of the culture solution described below in a 6-well tissue culture plate (FALCON). Culturing was performed for 72 hours in a CO2 incubator maintained at 37° C. and 100% humidity in the presence of 5% CO2 (in air).
Medium 199 (Gibco) containing penicillin (20 units/ml) and streptomycin (20 μg/ml) was used as the control culture solution.
The test culture solution contained the test compound added to the above-mentioned culture solution. The cultured lenses were placed in frozen storage until the time of the test.
After homogenising each frozen rat lens in 2 ml of distilled water, the resulting homogenate was separated by centrifugation (10,000 g, 20 minutes) after which the resulting supernatant was used as the enzyme sample.
400 μl of enzyme sample were added to 0.6 ml of phosphate buffer containing 1 mM oxidized glutathione (GSSG) and 100 μM NADPH. After the mixture had reacted at 25° C. for 6 minutes, the absorbance of the reaction mixture (at 340 nm: i.e. OD340nm) was measured. The difference (ΔOD340nm) between the OD340nm value before reaction and the OD340nm value after completion of the reaction was used as an indicator of glutathione reductase activity.

newborn rats = conditions: cited from earlier work

| Compound | ΔOD340 nm /min/g protein (indicator of glutathione reductase activity) (glutathione reductase; 10 μM in lens culture solution) | ΔOD340 nm /min/g protein (indicator of glutathione reductase activity) (glutathione reductase; 30 μM in lens culture solution) | ΔOD340 nm /min/g protein (indicator of glutathione reductase activity) (glutathione reductase; 100 μM in lens culture solution, p < 0.05) | ΔOD340 nm /min/g protein (indicator of glutathione reductase activity) (glutathione reductase; 300 μM in lens culture solution, p < 0.05) | ΔOD340 nm /min/g protein (indicator of glutathione reductase activity) (glutathione reductase; 1000 μM in lens culture solution, p < 0.05) | activity of glutathione reductase (newborn rats; lipoic acid in addition to BSO) | cataract formation (newborn rats; lipoic acid together with BSO) | total glutathione (oxidized and reduced glutathione) level (newborn rats; lipoic acid together with BSO) |
| --- | --- | --- | --- | --- | --- | --- | --- | --- |
| CS(=O)(=O)NC(=O)CCCCC1CCSS1 (centres unmarked) [Example 2, N-[5-(1,2-Dithiolan-3-yl)pentanoyl]methanesulfonamide] | 3.24 ± 0.10 ΔOD340 nm /min/g protein | 3.20 ± 0.09 ΔOD340 nm /min/g protein | 3.59 ± 0.05 ΔOD340 nm /min/g protein | 3.70 ± 0.08 ΔOD340 nm /min/g protein | 4.16 ± 0.18 ΔOD340 nm /min/g protein | – | – | – |
| O=C(O)CCCCC1CCSS1 (centres unmarked) [lipoic acid] | – | – | – | – | – | does not increase | suppressed | decrease is prevented |
